In assay [1] the test system is epithelial sodium channel (ENaC). Kind of assay: Short-circuit current, basal ENaC activity in mCCD cells. The format is cell-based, mouse. The following applies: mCCD cell monolayer, Ussing chamber. From the text:
The mouse cortical collecting duct (mCCD) cell line is a continuous, high resistance cell line that has the characteristics of the principal cells that line the kidney distal tubules. In this segment of the tubules, a transport protein, the epithelial sodium channel (ENaC), is responsible for the reabsorption of sodium from the kidney filtrate and the return of this ion to the bloodstream. As the concentration of sodium increases in the blood, the increased osmotic concentration will cause a compensatory movement of water from cells all over the body into the blood and an increase in blood volume and blood pressure. ENaC is an important transport protein and its function plays a major role in the regulation of whole body salt and water balance. Increases in the activity of ENaC can cause hypertension and many hypertension medications target the intracellular signaling pathways that culminate in the activation of ENaC. For example, ENaC is inhibited by the diuretic, amiloride.
The mCCD cell line was grown in tissue culture media consisting of Dulbecco's Minimal Essential media (DMEM):Hams F12 supplemented with 5% fetal bovine serum and penicillin (100 U/ml) and streptomycin ([…]). Cultured cells in both flasks and on Transwells had the media changed thrice weekly. […] In the current Example, the basal activity of ENaC in the cells is the parameter that is monitored.

Assay [2] concerns PCP-R porcine choroid plexus cell line. As to the kind of experiment: Short-circuit current, TRPV4 agonist-stimulated transepithelial ion transport in PCP-R cells. Type of assay: cell-based. The conditions noted are these: PCP-R cells in Ussing chamber, pretreatment at t=-10 minutes, agonist at t=0. As for the experimental part: PCP-R (porcine choroid plexus, high resistance) cell line was grown to confluence on permeable Transwell supports. The PCP-R cell line is grown in tissue culture media consisting of Dulbecco's Minimal Essential media (DMEM) supplemented with 10% fetal bovine serum and penicillin (100 U/ml) and streptomycin ([…]). Cultured cells in both flasks and on Transwells had the media changed thrice weekly. After attaining a high resistance phenotype (days 10-12 after seeding on the Transwells), the cultures were removed from the plastic supports and mounted in an Ussing chamber for electrophysiological measurements (short-circuit current (SCC)) of net transepithelial ion transport. A negative deflection is indicative of anion absorption (CSF to blood) and/or cation secretion (blood to CSF). GSK1016797 is an agonist of TRPV4, an osmo- and mechano-sensitive channel which, when stimulated, allows Ca^2+ to enter the cells. The increased intracellular Ca^2+ secondarily stimulates Ca^2+-sensitive channels. In the case of the PCP-R cells, this process stimulates Ca^2+-sensitive K^+ channels causing the secretion of K^+ and, secondarily, water into the cerebrospinal fluid. […] All cultures were stimulated with GSK1016797 at time t=0.

Assay [3] has as its system Wpk rat model (TMEM67-/-) of hydrocephalus. As to the kind of experiment: Head dimensions in homozygous Wpk rat model of hydrocephalus. The format is in vivo. The conditions noted are these: homozygous Wpk rats. As for the experimental part: The effectiveness of SI 113 was tested in a genetic model of hydrocephalus, the Wpk rat model. In this model, the homozygous animals (TMEM67−/−) carry a single point mutation in TMEM67, one of a complex of proteins involved in the formation of the primary cilium. The homozygous affected animals have severe hydrocephalus and renal cystic disease. They typically survive for 18-21 days after birth, and the developing hydrocephalus can be monitored by measuring the head size in a manner analogous to measuring head sizes in human children.
In FIG. 1, the head sizes in both the horizontal and vertical dimensions are shown.

Assay [4] relates to heterozygous Wpk rat model of hydrocephalus. Kind of assay: MRI of lateral ventricular volumes in heterozygous Wpk rat model. Type of assay: in vivo. The conditions noted are these: heterozygous Wpk rats, 8 mg/kg BW i.p. daily for 8 days, versus vehicle, P=0.039 Mann-Whitney. As for the experimental part:
FIG. 4 depicts MRI quantification of the effects of SI113 on hydrocephalus in the heterozygous Wpk rat model. The bars represent the difference in volumes of the lateral ventricles measured at postnatal (P) day 7 and P15. The volumes were measured by MRI before treatment with vehicle or SI 113 (8 mg/kg BW; i.p. daily) and again after 8 days of treatment. The difference in the volume for each of the animals was calculated and the averages ±SEM are shown in the bar graph. The number of animals in each study is noted as n. Approximately equal numbers of male and female animals were used.
The Wpk rat model is unique in that the genetic defect causes a severe hydrocephalus in the homozygous affected animals (see FIG. 1) and a mild hydrocephalus in the heterozygous animals (see FIG. 4). The heterozygous animals live for at least year. […] In this model the hydrocephalus is not severe enough to change head dimensions so the effect of the SI113 on the hydrocephalus was measured using MRI. […] Volumes of interest on lateral ventricles were determined from threshold based image segmentation of native cerebrospinal fluid contrast, and images were quantified for lateral ventricular volumes using Analyze 12.0. The MRIs were conducted on each animal on day 7 and day 15 and the differences in lateral ventricular volumes were calculated (FIG. 4).

SMILES strings stand for the structures. Entries after “also recorded” stand apart in the source; their conditions may differ.

As to `N=C(N)NC(=O)c1nc(Cl)c(N)nc1N` [amiloride, reference compound], the “short-circuit current (SCC), transepithelial sodium transport via ENaC” value in assay [1] is given as “strongly inhibited”.

For `OCCNc1nc(NCCc2ccccc2)c2cnn(/C=C/c3ccccc3)c2n1` [SI 113, 2-({1-(2-phenylethenyl)-4-[(2-phenylethy)amino]-1H-pyrazolo[3,4-d]pyrimidin-6-yl}amino)ethanol], the “short-circuit current (SCC), transepithelial sodium transport via ENaC” value in assay [1] was “caused a decrease in the SCC”. In assay [2], the “response (short-circuit current) to TRPV4 agonist GSK1016797” value is recorded as “completely blocked”. In addition, the “head dimensions of treated hydrocephalic animals compared with wild-type animals” value in assay [3] (after treatment post-natal day 7 to day 15) is “not statistically different than the wild-type animals”. Further, the “head dimensions (horizontal and vertical) of hydrocephalic animals” value in assay [3] (treatment post-natal day 7 to day 15, versus vehicle, *p=0.009, # p=0.03, 1-tailed t-test) was “significantly decreased the head dimensions”. The “hydrocephalus, difference in lateral ventricular volumes between P7 and P15 by MRI” value in assay [4] is “statistically significant difference; also recorded: effectively decreased the hydrocephalus”.

These data come from US11701358B2, “Methods of inhibiting serum glucocorticoid induced kinase 1 (SGKI) as a treatment for salt and water balance diseases” (Indiana University Research and Technology Corporation, priority 2017, dated 2023).
